From ChEMBL document CHEMBL1136837, “Unified QSAR approach to antimicrobials. 4. Multi-target QSAR modeling and comparative multi-distance study of the giant components of antiviral drug-drug complex networks” (Bioorg Med Chem, 2009)

Test system: Human immunodeficiency virus 1
Experiment: Antiviral activity against HIV1
Format: functional, organism-based

| SMILES | IC50 |
| --- | --- |
| CCOC(=O)c1[nH]c2c(Cl)cccc2c1S(=O)(=O)c1ccccc1N | 200 µM |
| C[C@H]1O[C@@H](n2c(Cl)c(C#N)c3cc(Cl)c(Cl)cc32)[C@H](O)[C@@H]1O | 32 µM |
| CC(C)OC(=O)c1cn(S(=O)(=O)c2ccccc2)c2ccccc12 | 5 µM |
| COc1ccc(F)cc1-c1nc2c(N)cccc2n1Cc1c(F)cccc1F | 2.71 µM |
| CCn1cc(C(=O)CC(=O)C(=O)OC)c2ccccc21 | 19 µM |
| CCOC(=O)c1cc2ccc(Cl)cc2n1S(=O)(=O)c1ccc(Cl)cc1 | 200 µM |
| NC(=O)c1cn(S(=O)(=O)c2ccccc2)c2ccccc12 | 32 µM |
| Nc1ncnc2c1ncn2C1C=CC(OCP(=O)(O)OP(=O)(O)C(Br)(Br)P(=O)(O)OP(=O)(O)COC2C=CC(n3cnc4c(N)ncnc43)C2)C1 (stereo not given) | 200 µM |
| CC(=O)NC1=CC(=O)c2ccc(-c3[nH]c(C(=O)O)cc4c5ccccc5nc3-4)nc2C1=O | 13.3 µM |
| Cc1ncc([N+](=O)[O-])n1CCOC(c1ccccc1)c1cc(Cl)cc(Cl)c1 (stereo not given) | 45 µM |
| Nc1ccn([C@H]2O[C@H](CO)C=C2F)c(=O)n1 | 100 µM |
| CC1(C)Oc2ccc3cc(CBr)c(=O)oc3c2[C@@H](OC(=O)[C@@]23CC[C@](C)(C(=O)O2)C3(C)C)[C@H]1OC(=O)[C@@]12CC[C@](C)(C(=O)O1)C2(C)C | 11.1 µM |
| Nc1nc(=O)n([C@@H]2S[C@H](CO)C=C2F)cc1F | 11.6 µM |
| C=C(C)[C@@H]1CC[C@]2(C(=O)NCCCCCCCC(=O)N[C@@H](CC(C)C)[C@H](O)CC(=O)O)CC[C@]3(C)[C@H](CC[C@@H]4[C@@]5(C)CC[C@H](O)C(C)(C)[C@@H]5CC[C@]43C)[C@@H]12 | 0.33 µM |
| CC1(C)Oc2ccc3ccc(=O)oc3c2[C@@H](OC(=O)[C@@]23CC[C@](C)(C(=O)O2)C3(C)C)[C@H]1OC(=O)[C@@]12CC[C@](C)(C(=O)O1)C2(C)C [DCK] | 16.1 µM |
| CCn1cc(C(=O)/C=C(/O)C(=O)O)c2ccccc21 | 9 µM |
| O=c1[nH]cnc2c1ncn2[C@@H]1S[C@H](CO)C=C1F | 43.6 µM |
| O=Cc1cccc2c1nc(-c1c(F)cccc1F)n2Cc1c(F)cccc1F | 0.1 µM |
| COC(=O)C(=O)CC(=O)c1cn(C)c2cc3c(cc12)OCO3 | 31 µM |
| Nc1nc(O)c2ncn([C@H]3S[C@@H](CO)C=C3F)c2n1 | 43.5 µM |
| C=C[C@@]1(CO)C=C[C@H](n2cc(C)c(=O)[nH]c2=O)O1 | 100 µM |
| O=C(O)/C(O)=C/C(=O)c1ccccc1 | 25 µM |
| O=C(O)/C(O)=C/C(=O)c1cccc(C(=O)/C=C(\O)C(=O)O)c1 | 1.83 µM |

| SMILES | IC50 |
| --- | --- |
| O=S(=O)(c1ccccc1)n1ccc2ccccc21 | 150 µM |
| Fc1cccc(F)c1Cn1c(-c2c(F)cccc2F)nc2ccccc21 | 1.7 µM |
| C=C(C)[C@@H]1CC[C@]2(C(=O)NCCCCCCCCCCC(=O)O)CC[C@]3(C)[C@H](CC[C@@H]4[C@@]5(C)CC[C@H](O)C(C)(C)[C@@H]5CC[C@]43C)[C@@H]12 | 0.7 µM |
| CC(C)OC(=O)c1cn(S(=O)(=O)c2ccccc2)c2ccc(Cl)cc12 | 200 µM |
| Nc1ncnc2c1ncn2[C@H]1CC(F)(F)[C@H](CO)O1 | 100 µM |
| CC(C)(C)c1ccc(S(=O)(=O)c2c(C(N)=O)[nH]c3ccc(Cl)cc23)cc1 | 0.13 µM |
| CC(=O)OCc1cc2c(C)cc(=O)oc2c2c1OC(C)(C)[C@H](OC(=O)[C@@]13CC[C@](C)(C(=O)O1)C3(C)C)[C@@H]2OC(=O)[C@@]12CC[C@](C)(C(=O)O1)C2(C)C | 14.1 µM |
| O=C(/C=C/c1ccc(O)c(O)c1)NCC(OC(=O)/C=C/c1ccc(O)c(O)c1)C(=O)O (racemic) | 0.19 µM |
| Cc1cc(OCCCS(N)(=O)=O)ccc1NC(=O)COc1ccc(Cl)cc1C(=O)c1cc(F)cc(C(F)(F)F)c1 | 0.0024 µM |
| Fc1cccc(F)c1Cn1c(-c2c(F)cccc2F)nc2c(Cl)cccc21 | 0.4 µM |
| OC[C@H]1C=C(F)[C@@H](n2cnc3c(O)ncnc32)S1 | 15.5 µM |
| COc1ccc(C(OCCn2c([N+](=O)[O-])cnc2C)c2ccccc2)cc1 (stereo not given) | 86 µM |
| Cc1ncc([N+](=O)[O-])n1CCCOC(c1ccccc1)c1ccccc1 | 35 µM |
| O=c1cc(Cc2c(F)cccc2F)nc(NC2CCCC2)[nH]1 | 0.07 µM |
| OC[C@@H]1O[C@@H](n2cnc3c(O)ncnc32)CC1(F)F | 100 µM |
| Cc1cn([C@@H]2O[C@H](CO)C=C2F)c(=O)nc1N | 100 µM |
| O=C(NNC(=O)c1ccccc1S)c1ccccc1S [BIS(THIOSALICYL)HYDRAZIDE] | 4.3 µM |
| Cc1c(CO)c(=O)oc2c3c(ccc12)OC(C)(C)[C@H](OC(=O)C12CCC(C)(C(=O)O1)C2(C)C)[C@@H]3OC(=O)C12CCC(C)(C(=O)O1)C2(C)C (stereo not given in full) | 24.9 µM |
| CC(c1cc(=O)[nH]c(NC2CCCC2)n1)c1c(F)cccc1F (stereo not given) | 0.04 µM |
| [N-]=[N+]=NC[C@H]1O[C@@H](n2c(Cl)c(C=O)c3cc(Cl)c(Cl)cc32)[C@H](O)[C@@H]1O | 10 µM |
| Nc1nc(O)c2ncn([C@@H]3O[C@H](CO)C=C3F)c2n1 | 2.6 µM |
| COC(=O)C(C)NP(=O)(OC[C@@H]1C=C[C@H](n2cc(C)c(=O)[nH]c2=O)O1)Oc1ccc(Br)cc1 (stereo not given in full) [STAMPIDINE] | 0.003 µM |
